Measurements reported in PubChem BioAssay AID248 (DTP/NCI, 2004).
Inconclusive results and toxic doses are left out. No stated cut-off is given here; in the data, active means T/C of 150% or more; inactive means T/C below 125%.

Tested on: L1210 leukemia ip in BDF1 mice, survival T/C
Test: NCI In Vivo Anticancer Drug Screen. Data for tumor model L1210 Leukemia (intraperitoneal) in B6D2F1 (BDF1) mice
Details: endpoint: mean survival time, higher = longer survival
Procedure, shortened: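 Transplantable tumor model; survival measured in treated vs vehicle control mice. Value = treated/control.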

[1] = dose: 100.0 mg/kg/injection, schedule: Q01DX009 (ip), vehicle: Klucel (hydroxypropylcellulose) (HPC)
[2] = dose: 100.0 mg/kg/injection, schedule: Q04DX003 (ip), vehicle: Klucel (hydroxypropylcellulose) (HPC)
[3] = dose: 200.0 mg/kg/injection, schedule: Q01DX009 (ip), vehicle: Klucel (hydroxypropylcellulose) (HPC)
[4] = dose: 200.0 mg/kg/injection, schedule: Q04DX003 (ip), vehicle: Klucel (hydroxypropylcellulose) (HPC)
[5] = dose: 400.0 mg/kg/injection, schedule: Q01DX009 (ip), vehicle: Klucel (hydroxypropylcellulose) (HPC)
[6] = dose: 400.0 mg/kg/injection, schedule: Q04DX003 (ip), vehicle: Klucel (hydroxypropylcellulose) (HPC)
[7] = dose: 100.0 mg/kg/injection, schedule: Q01DX009 (ip), vehicle: saline with Tween-80
[8] = dose: 200.0 mg/kg/injection, schedule: Q01DX009 (ip), vehicle: saline with Tween-80
[9] = dose: 50.0 mg/kg/injection, schedule: Q01DX001 (ip), vehicle: carboxymethylcellulose (CMC)
[10] = dose: 100.0 mg/kg/injection, schedule: Q01DX001 (ip), vehicle: carboxymethylcellulose (CMC)
[11] = dose: 200.0 mg/kg/injection, schedule: Q01DX001 (ip), vehicle: carboxymethylcellulose (CMC)
[12] = dose: 75.0 mg/kg/injection, schedule: Q01DX001 (ip), vehicle: saline
[13] = dose: 150.0 mg/kg/injection, schedule: Q01DX001 (ip), vehicle: saline
[14] = dose: 400.0 mg/kg/injection, schedule: Q01DX001 (ip), vehicle: carboxymethylcellulose (CMC)
[15] = dose: 100.0 mg/kg/injection, schedule: Q04DX003 (ip), vehicle: saline with Tween-80
[16] = dose: 200.0 mg/kg/injection, schedule: Q04DX003 (ip), vehicle: saline with Tween-80
[17] = dose: 400.0 mg/kg/injection, schedule: Q01DX009 (ip), vehicle: saline with Tween-80
[18] = dose: 400.0 mg/kg/injection, schedule: Q04DX003 (ip), vehicle: saline with Tween-80
[19] = dose: 100.0 mg/kg/injection, schedule: Q01DX009 (ip), vehicle: saline
[20] = dose: 100.0 mg/kg/injection, schedule: Q04DX003 (ip), vehicle: saline
[21] = dose: 200.0 mg/kg/injection, schedule: Q01DX009 (ip), vehicle: saline
[22] = dose: 200.0 mg/kg/injection, schedule: Q04DX003 (ip), vehicle: saline
[23] = dose: 400.0 mg/kg/injection, schedule: Q01DX009 (ip), vehicle: saline
[24] = dose: 400.0 mg/kg/injection, schedule: Q04DX003 (ip), vehicle: saline
[25] = dose: 50.0 mg/kg/injection, schedule: Q01DX001 (ip), vehicle: Klucel (hydroxypropylcellulose) (HPC)
[26] = dose: 100.0 mg/kg/injection, schedule: Q01DX001 (ip), vehicle: Klucel (hydroxypropylcellulose) (HPC)
[27] = dose: 200.0 mg/kg/injection, schedule: Q01DX001 (ip), vehicle: Klucel (hydroxypropylcellulose) (HPC)

Measured: T/C

O=C1c2ccccc2C(=O)c2c(O)c(Cc3ccccn3)cc(O)c21
inactive: dose: 100.0 mg/kg/injection, schedule: Q04DX003 (ip), vehicle: saline sonified 89 % of control | dose: 200.0 mg/kg/injection, schedule: Q04DX003 (ip), vehicle: saline sonified 89 % of control | dose: 400.0 mg/kg/injection, schedule: Q04DX003 (ip), vehicle: saline sonified 94 % of control

CC(O)COc1ccc(OCc2ccccc2)cc1 (stereo not drawn)
inactive: [1] 98 % of control | [2] 106 % of control | [3] 95 % of control | [4] 100 % of control | [5] 97 % of control | [6] 92 % of control

CCOC(=O)CNC(=O)NCc1ccc2c(c1)OCO2
inactive: [7] 98 % of control | [8] 90 % of control

CCCCCCCCCC(=O)CCCCCC
inactive: [1] 96 % of control | [2] 95 % of control | [3] 98 % of control | [4] 103 % of control | [5] 107 % of control | [6] 93 % of control

CCCCCC(C)NCC(C)O (stereo not drawn)
inactive: dose: 75.0 mg/kg/injection, schedule: Q01DX001 (ip), vehicle: acid diluted with saline 100 % of control

COc1cc2nc3cc([N+](=O)[O-])ccc3c(Cl)c2cc1OC
inactive: [1] 96 % of control | [2] 97 % of control | [3] 88 % of control | [4] 98 % of control | [6] 103 % of control

NNC(=O)CNc1ccc(F)cc1Br
inactive: dose: 100.0 mg/kg/injection, schedule: Q04DX002 (ip), vehicle: Klucel (hydroxypropylcellulose) (HPC) 101 % of control | dose: 200.0 mg/kg/injection, schedule: Q04DX002 (ip), vehicle: Klucel (hydroxypropylcellulose) (HPC) 101 % of control

COC(=O)CCCc1ccc(N(CCO)CCF)cc1
inactive: dose: 25.0 mg/kg/injection, schedule: Q01DX001 (ip), vehicle: carboxymethylcellulose (CMC) 103 % of control | [9] 114 % of control | [10] 101 % of control | [11] 106 % of control

NNC(=O)c1ccc(-c2ccc[nH]2)[nH]1
inactive: [12] 108 % of control | [13] 92 % of control

O=[N+]([O-])c1ccc(S(=O)(=O)C2CCCCC2Cl)c([N+](=O)[O-])c1 (stereo not drawn)
inactive: [9] 95 % of control | [10] 111 % of control | [11] 106 % of control | [14] 101 % of control

CCOP(=O)(OCC)C1=C(P(=O)(OCC)OCC)C(F)(F)C1(F)F
inactive: dose: 75.0 mg/kg/injection, schedule: Q01DX001 (ip), vehicle: other 102 % of control

Cc1ccc(Cl)c(OCc2cc(=O)[nH]c(=O)[nH]2)c1
inactive: dose: 10.0 mg/kg/injection, schedule: Q04DX003 (ip), vehicle: saline with Tween-80 101 % of control | dose: 20.0 mg/kg/injection, schedule: Q04DX003 (ip), vehicle: saline with Tween-80 92 % of control | dose: 40.0 mg/kg/injection, schedule: Q04DX003 (ip), vehicle: saline with Tween-80 95 % of control

C1CCC2(CC1)CCCCC2
inactive: dose: 5.0 mg/kg/injection, schedule: Q01DX001 (ip), vehicle: saline 97 % of control | dose: 10.0 mg/kg/injection, schedule: Q01DX001 (ip), vehicle: saline 103 % of control | dose: 20.0 mg/kg/injection, schedule: Q01DX001 (ip), vehicle: saline 93 % of control | dose: 40.0 mg/kg/injection, schedule: Q01DX001 (ip), vehicle: saline 97 % of control | dose: 80.0 mg/kg/injection, schedule: Q01DX001 (ip), vehicle: saline 100 % of control

N#CCCCCn1ccc(=O)[nH]c1=O
inactive: dose: 45.0 mg/kg/injection, schedule: Q01DX009 (ip), vehicle: Klucel (hydroxypropylcellulose) (HPC) 92 % of control | dose: 90.0 mg/kg/injection, schedule: Q01DX009 (ip), vehicle: Klucel (hydroxypropylcellulose) (HPC) 104 % of control | [2] 100 % of control | dose: 180.0 mg/kg/injection, schedule: Q01DX009 (ip), vehicle: Klucel (hydroxypropylcellulose) (HPC) 98 % of control | [4] 102 % of control | dose: 360.0 mg/kg/injection, schedule: Q01DX009 (ip), vehicle: Klucel (hydroxypropylcellulose) (HPC) 93 % of control | [6] 96 % of control

Cc1cc(Cl)ccc1NC(=O)c1ccc(Cl)c(Cl)c1
inactive: [7] 88 % of control | [15] 100 % of control | [8] 93 % of control | [16] 96 % of control | [17] 93 % of control | [18] 94 % of control

O=C(O)c1ccc(OCCc2ccccc2)cc1
inactive: [12] 98 % of control | dose: 75.0 mg/kg/injection, schedule: Q04DX003 (ip), vehicle: saline 103 % of control | [13] 98 % of control | dose: 150.0 mg/kg/injection, schedule: Q04DX003 (ip), vehicle: saline 98 % of control | dose: 300.0 mg/kg/injection, schedule: Q01DX001 (ip), vehicle: saline 95 % of control | dose: 300.0 mg/kg/injection, schedule: Q04DX003 (ip), vehicle: saline 93 % of control

CCOC(=O)c1cnc(C)nc1C
inactive: [19] 95 % of control | [20] 103 % of control | [21] 100 % of control | [22] 98 % of control | [23] 95 % of control | [24] 98 % of control

Cn1cnc(C(N)=S)c1N
inactive: [19] 98 % of control | [20] 107 % of control | [21] 105 % of control | [22] 102 % of control | [23] 96 % of control | [24] 105 % of control

CCOC(=O)CSc1nc(N)cc(=O)[nH]1
inactive: [25] 110 % of control | [26] 117 % of control | [27] 110 % of control

COc1cccc(OC)c1C(c1c(OC)cccc1OC)c1c(OC)cccc1OC
inactive: [15] 95 % of control | [16] 91 % of control | [18] 101 % of control

O=C(O)/C=C/C(=O)Nc1cccc(Oc2ccc([N+](=O)[O-])cc2[N+](=O)[O-])c1
inactive: [20] 106 % of control | [22] 111 % of control | [24] 104 % of control

CC(=O)[O][Sn]([CH2]C1CCCCC1)([CH2]C1CCCCC1)[CH2]C1CCCCC1
inactive: dose: 6.25 mg/kg/injection, schedule: Q04DX002 (ip), vehicle: saline with Tween-80 96 % of control | dose: 12.5 mg/kg/injection, schedule: Q04DX002 (ip), vehicle: saline with Tween-80 96 % of control

O=[N+]([O-])c1ccc(OCc2ccc(COc3ccc(S(=O)(=O)F)cc3)cc2)c(Cl)c1
inactive: dose: 100.0 mg/kg/injection, schedule: Q01DX001 (ip), vehicle: saline with Tween-80 90 % of control | dose: 200.0 mg/kg/injection, schedule: Q01DX001 (ip), vehicle: saline with Tween-80 102 % of control | dose: 400.0 mg/kg/injection, schedule: Q01DX001 (ip), vehicle: saline with Tween-80 96 % of control

CC1C2Cc3ccc(O)cc3C1(C)CCN2C/C=C\Cl (stereo not drawn)
inactive: [7] 94 % of control | [8] 95 % of control | [17] 95 % of control

C[Si](C)(C)c1c(F)c(F)c(F)c(F)c1F
inactive: [7] 102 % of control | [8] 94 % of control | [17] 97 % of control

CCOc1ccc(Br)cc1C1N(Cc2ccc(OC)cc2)CCCN1Cc1ccc(OC)cc1
inactive: [10] 96 % of control | [11] 93 % of control | [14] 91 % of control

O=C1C2CCN(CC2)C1Cc1ccccc1 (stereo not drawn)
inactive: dose: 100.0 mg/kg/injection, schedule: Q04DX002 (ip), vehicle: saline 111 % of control | dose: 200.0 mg/kg/injection, schedule: Q04DX002 (ip), vehicle: saline 107 % of control

O=[N+]([O-])c1ccc(N/N=C/c2cccc(CO)c2)c([N+](=O)[O-])c1
inactive: [7] 98 % of control | [8] 95 % of control | [17] 100 % of control

O=C1C2CCN(CC2)C1CN1CCC(O)(c2ccc(Cl)cc2)CC1 (stereo not drawn)
inactive: [2] 104 % of control | [4] 101 % of control

O=c1[nH]c(SCc2cccc([N+](=O)[O-])c2)nc2nc[nH]c12
inactive: [25] 96 % of control | [26] 100 % of control | [27] 107 % of control
